The values below are quoted from earlier work in US8946410B2, “Automated radiosynthesis” (GE Healthcare Limited, priority 2009, dated 2015).

Each structure is given as a SMILES string.

This data set has as its target GABAA receptor. To be noted: GABAA receptor affinity, related art.

The Ki is the equilibrium dissociation constant of an inhibitor or competing ligand from its target. As to `CCOC(=O)c1ncn2c1CN(C)C(=O)c1cc([18F])ccc1-2` [[^18F]FMZ, [^18F]Flumazenil], the Ki was approximately 0.5 nM.
